In patent US10357481B2 (MERCK SHARP & DOHME CORP., priority 2015, dated 2019):
pKi: −log10 of the molar value. Read-outs that look alike come from different tables or passages of the source.

Legend:
Rhesus PDE2A3 = target: T1, Rhesus PDE2A3 (Macaca mulatta, UniProt B3VTJ2); test: PDE2 fluorescence polarization (IMAP FP) inhibition assay, rhesus PDE2A3; type: biochemical, rhesus macaque
T1 construct: made in house; host or cells: AD293 cells, transiently transfected with pcDNA3.3-TOPO; lysate supernatant used
T1 sequence (B3VTJ2 1-941): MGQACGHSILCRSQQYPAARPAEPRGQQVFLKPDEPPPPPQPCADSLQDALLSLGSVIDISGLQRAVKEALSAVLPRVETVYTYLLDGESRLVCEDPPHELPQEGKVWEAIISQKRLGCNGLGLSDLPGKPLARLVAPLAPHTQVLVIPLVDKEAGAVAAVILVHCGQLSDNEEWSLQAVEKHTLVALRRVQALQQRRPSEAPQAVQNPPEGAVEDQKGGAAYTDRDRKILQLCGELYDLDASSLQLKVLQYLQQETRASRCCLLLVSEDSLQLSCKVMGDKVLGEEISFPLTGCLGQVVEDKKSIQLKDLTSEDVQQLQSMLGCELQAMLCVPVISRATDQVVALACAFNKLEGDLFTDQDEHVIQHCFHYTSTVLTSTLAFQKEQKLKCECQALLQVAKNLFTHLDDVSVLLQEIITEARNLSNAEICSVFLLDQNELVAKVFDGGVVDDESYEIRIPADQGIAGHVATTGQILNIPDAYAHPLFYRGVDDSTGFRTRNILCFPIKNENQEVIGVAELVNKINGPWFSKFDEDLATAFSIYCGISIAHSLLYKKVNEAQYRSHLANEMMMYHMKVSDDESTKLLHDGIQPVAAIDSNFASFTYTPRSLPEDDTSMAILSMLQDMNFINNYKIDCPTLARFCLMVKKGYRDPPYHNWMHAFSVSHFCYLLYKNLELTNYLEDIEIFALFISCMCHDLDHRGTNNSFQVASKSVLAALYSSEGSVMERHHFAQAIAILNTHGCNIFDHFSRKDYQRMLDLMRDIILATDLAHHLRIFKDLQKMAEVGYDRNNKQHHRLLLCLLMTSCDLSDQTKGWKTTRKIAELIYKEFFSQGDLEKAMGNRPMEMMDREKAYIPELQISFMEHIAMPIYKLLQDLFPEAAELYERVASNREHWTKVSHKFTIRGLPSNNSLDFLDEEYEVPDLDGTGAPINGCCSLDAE
Protocol: The activity of the compounds in accordance with the present invention as PDE2 inhibitors may be readily determined using a fluorescence polarization (FP) methodology (Huang, W., et al., J. Biomol Screen, 2002, 7: 215).
In a typical experiment the PDE2 inhibitory activity of the compounds of the present invention was determined in accordance with the following experimental method. Rhesus PDE2A3 was amplified from rhesus macaque brain cDNA (Biochain Institute, Hayward, Calif.) using primers based on human PDE2A sequence (accession NM_002599.3) where the forward primer containing a Kozak consensus was 5′-[…]-3′ and the reverse primer was 5′-[…]-3′. Amplification with Easy-A High-Fidelity PCR cloning enzyme (Stratagene, La Jolla, Calif.) was 95° C. for 2 minutes followed by thirty three cycles of 95° C. for 40 seconds, 52° C. for 30 seconds, and 72° C. for 2 minutes 48 seconds. Final extension was 72° C. for 7 minutes. The PCR product was TA cloned into pcDNA3.3-TOPO (Invitrogen, Carlsbad, Calif.) aaccording to standard protocol. A consensus sequence was developed from multiple clones and then deposited into GenBank (EU812167). AD293 cells (Stratagene, La Jolla, Calif.) with 70-80% confluency were transiently transfected with rhesus PDE2A3/pcDNA3.3-TOPO using Lipofectamine 2000 according to manufacturer specifications (Invitrogen, Carlsbad, Calif.). Cells were harvested 48 hours post-transfection and lysed by sonication (setting 3, 10×5 sec pulses) in a buffer containing 20 mM HEPES pH 7.4, 1 mM EDTA and Complete Protease Inhibitor Cocktail Tablets (Roche, Indianapolis, Ind.). Lysate was collected by centrifugation at 75,000×g for 20 minutes at 4° C. and supernatant utilized for evaluation of PDE2 activity. The fluorescence polarization assay for cyclic nucleotide phosphodiesterases was performed using an IMAP® FP kit supplied by Molecular Devices, Sunnyvale, Calif. (product # R8139). […] Assays were performed at room temperature in 384-well microtiter plates with an incubation volume of 20.2 μL. Solutions of test compounds were prepared in DMSO and serially diluted with DMSO to yield 8 μL of each of 10 solutions differing by 3-fold in concentration, at 32 serial dilutions per plate. […] 0% of inhibition is determined by using DMSO (1% final concentrations).
A Labcyte Echo 555 (Labcyte, Sunnyvale, Calif.) is used to dispense 200 nL from each well of the titration plate to the 384 well assay plate. Ten microliters of a solution of enzyme (1/2000 final dilution from aliquots; sufficient to produce 20% substrate conversion) was added to the assay plate. Next 10 uL of a separate solution of the substrate FAM-labeled cAMP (50 nM final concentration product # R7506 from Molecular Devices) and the activator cGMP (1 uM final concentration), prepared in the assay buffer (10 mM Tris HCl, pH 7.2, 10 mM MgCl2, 0.05% NaN3 0.01% Tween-20, and 1 mM DTT) was added to the assay plate and shaken to mix. The reaction is allowed to proceed at room temperature for 60 minutes. A binding solution is then made from the kit components, comprised of 80% Solution A, 20% Solution B and binding reagent at a volume of 1/600 the total binding solution. The enzymatic reaction is stopped by addition of 60 μL of the binding solution to each well of the assay plates and the plates are sealed and shaken for 30 seconds. The plate was incubated at room temperature for at least one hour prior to determining the fluorescence polarization (FP). The parallel and perpendicular fluorescence of each well of the plate was measured using a Tecan Genios Pro plate reader (Tecan, Switzerland) or Perkin Elmer EnVision™ plate reader (Waltham, Mass.). Fluorescence polarization (mP) was calculated from the parallel (S) and perpendicular (P) fluorescence of each sample well and the analogous values for the median control well, containing only substrate (So and Po), using the following equation: Polarization (mP)=1000*(S/So−P/Po)/(S/So+P/Po).

human PDE2A1 = target: T2, human PDE2A1 (Homo sapiens, UniProt O00408); test: IMAP FP PDE selectivity panel, human PDE2A1; type: biochemical
T2 construct: GST; purchased BPS Bioscience (San Diego, Calif.) 60020; host or cells: insect cells
Procedure, shortened: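 Human PDE2A1 tested alongside PDE1–11 by IMAP fluorescence polarization at room temperature. Substrate was 50 nM FAM-cAMP plus 1000 nM cGMP, buffer pH 7.2 with MgCl2 and DTT, enzyme set for 20% conversion. Ten 3-fold compound dilutions; 60 min reaction, then IMAP binding solution, 1 h, parallel/perpendicular fluorescence read.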

other PDE isoforms = conditions: reported in Annual Reports in Medicinal Chemistry 42: 4-5, 2007; cited from earlier work
[1] = reported in Annual Reports in Medicinal Chemistry 42: 4-5, 2007; cited from earlier work
[2] = Lab B, read-out: Rhesus PDE2 Ki (nM) Lab B
[3] = Lab A, read-out: Rhesus PDE2 Ki (nM) Lab A

T2 sequence (O00408 1-920 isoform O00408-2): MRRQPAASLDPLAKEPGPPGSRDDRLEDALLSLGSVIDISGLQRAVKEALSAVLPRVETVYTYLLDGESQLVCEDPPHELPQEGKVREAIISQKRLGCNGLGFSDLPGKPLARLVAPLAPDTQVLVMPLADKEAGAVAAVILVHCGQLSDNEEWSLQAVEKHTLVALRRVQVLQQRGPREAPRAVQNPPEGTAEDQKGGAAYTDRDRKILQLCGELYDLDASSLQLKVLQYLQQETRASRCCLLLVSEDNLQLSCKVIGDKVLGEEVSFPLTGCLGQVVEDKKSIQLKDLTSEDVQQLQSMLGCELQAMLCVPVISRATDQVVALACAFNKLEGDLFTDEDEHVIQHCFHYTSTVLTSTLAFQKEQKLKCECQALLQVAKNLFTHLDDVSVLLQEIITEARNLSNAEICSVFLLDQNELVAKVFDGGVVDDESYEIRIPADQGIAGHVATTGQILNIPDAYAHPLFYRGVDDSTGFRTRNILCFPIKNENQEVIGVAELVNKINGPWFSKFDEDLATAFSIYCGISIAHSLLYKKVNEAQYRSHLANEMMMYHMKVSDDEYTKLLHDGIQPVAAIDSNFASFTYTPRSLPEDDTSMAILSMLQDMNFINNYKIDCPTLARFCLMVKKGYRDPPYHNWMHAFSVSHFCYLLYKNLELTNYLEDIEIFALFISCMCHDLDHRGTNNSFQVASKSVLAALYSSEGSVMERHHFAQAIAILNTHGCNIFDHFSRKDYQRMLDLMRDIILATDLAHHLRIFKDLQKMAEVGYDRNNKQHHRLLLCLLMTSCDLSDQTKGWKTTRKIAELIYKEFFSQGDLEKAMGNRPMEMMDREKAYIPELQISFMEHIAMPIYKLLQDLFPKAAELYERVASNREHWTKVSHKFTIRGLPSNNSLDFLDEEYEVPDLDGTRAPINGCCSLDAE

SMILES | Ki (Rhesus PDE2A3; [2]) [nM] | Ki (human PDE2A1; Human PDE2 Ki (nM) Lab B) [nM] | further results
Cc1cc(NC2(c3ccc(C(F)(F)F)cc3)CC2)n2ncnc2n1 [Example 56, 5-Methyl-N-{1-[4-(trifluoromethyl)phenyl]cyclopropyl}[1,2,4]triazolo[1,5-a]pyrimidin-7-amine] | 61 | 79 | –
Cc1cc(N[C@@H](c2ccc(C(F)(F)F)c(F)c2)C(C)(C)O)n2ncnc2n1 [Example 98, (1S)-1-[3-Fluoro-4-(trifluoromethyl)phenyl]-2-methyl-1-[(5-methyl [1,2,4]triazolo[1,5-a]pyrimidin-7-yl)amino]propan-2-ol] | 12 | 10 | –
COc1ccc(Cc2nn3c([C@@H](CCCc4ccccc4)[C@@H](C)O)nc(C)c3c(=O)[nH]2)cc1OC [BAY 60-7550] | – | – | potency at other PDE isoforms (other PDE isoforms): significant potency; brain penetration [1]: limited
Cc1cc(N[C@@H](c2ccc(OC(F)(F)F)c(F)c2)C(C)(C)O)n2ncnc2n1 (single isomer, unassigned) [Example 92] | 6.8 | 5.4 | –
CCc1cc(NC2(c3ccc(C(F)(F)F)c(F)c3)CC2)n2ncnc2n1 [Example 68, 5-Ethyl-N-{1-[3-fluoro-4-(trifluoromethyl)phenyl]cyclopropyl}[1,2,4]triazolo[1,5-a]pyrimidin-7-amine] | – | – | pKi (Rhesus PDE2A3): 7.54; Ki (human PDE2A1; Lab B, read-out: Human PDE2 Ki (nM) Lab B): 35 nM
CC(Nc1ccnc2ncnn12)c1ccc(OC(F)(F)F)cc1 (stereo not shown) [Example 84, N-{1-[4-(Trifluoromethoxy)phenyl]ethyl}[1,2,4]triazolo[1,5-a]pyrimidin-7-amine] | – | – | Ki (Rhesus PDE2A3; [3]): 2770 nM
Cc1cc(NC(c2ccc(S(F)(F)(F)(F)F)cc2)C(C)(C)O)n2ncnc2n1 (single isomer, unassigned) [Example 117, (1R or S)-2-Methyl-1-[(5-methyl[1,2,4]triazolo[1,5-a]pyrimidin-7-yl)amino]-1-[4-(pentafluoro-λ^6-sulfanyl)phenyl] propan-2-ol] | 5.6 | 4.6 | –
CC(Nc1ccnc2ncnn12)c1ccc(C(F)(F)F)cc1 (stereo not shown) [Example 83, N-{1-[4-(Trifluoromethyl)phenyl]ethyl}[1,2,4]triazolo[1,5-a]pyrimidin-7-amine] | – | – | Ki (Rhesus PDE2A3; [3]): 4680 nM
Cc1cc(NC2(c3ccc(C(F)(F)F)c(F)c3)CC2)n2ncnc2n1 [Example 57, N-{1-[3-Fluoro-4-(trifluoromethyl)phenyl]cyclopropyl}-5-methyl [1,2,4]triazolo[1,5-a]pyrimidin-7-amine] | 22 | 21 | –
